# ChEMBL document CHEMBL1921742, “9,10-secosteroids, protein kinase inhibitors from the Chinese gorgonian Astrogorgia sp” (Bioorg Med Chem, 2011)
# How the values were obtained:
# Focal adhesion kinase 1 = Focal adhesion kinase 1 (Homo sapiens, UniProt Q05397); experiment: Inhibition of recombinant human FAK using poly(Glu,Tyr)4:1 as substrate
# [1] = biological target: ALK tyrosine kinase receptor (Homo sapiens, UniProt Q9UM73); experiment: Inhibition of recombinant human ALK
# [2] = biological target: Insulin-like growth factor 1 receptor (Homo sapiens, UniProt P08069); experiment: Inhibition of recombinant human IGF1-R using poly(Glu,Tyr)4:1 as substrate
# Aurora kinase B = Aurora kinase B (Homo sapiens, UniProt Q96GD4); experiment: Inhibition of recombinant human Aurora-B using tetra(LRRWLSG) as substrate
# Sequence of Aurora kinase B (Q96GD4 whole entry, the tested form may be a part): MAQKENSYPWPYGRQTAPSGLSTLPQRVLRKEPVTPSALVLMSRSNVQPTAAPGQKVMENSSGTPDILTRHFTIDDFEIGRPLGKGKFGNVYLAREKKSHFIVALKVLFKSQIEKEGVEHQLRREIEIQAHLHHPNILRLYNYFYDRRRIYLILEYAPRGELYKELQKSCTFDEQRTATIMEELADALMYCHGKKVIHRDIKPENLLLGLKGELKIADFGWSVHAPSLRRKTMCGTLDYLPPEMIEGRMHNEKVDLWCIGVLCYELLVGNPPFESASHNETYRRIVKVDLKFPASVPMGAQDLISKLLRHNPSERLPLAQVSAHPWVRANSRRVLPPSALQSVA
# [3] = biological target: RAC-alpha serine/threonine-protein kinase (Homo sapiens, UniProt P31749); experiment: Inhibition of recombinant human AKT1 using GSK3 (amino acids 14 to 27) as substrate
# [4] = biological target: T1, Serine/threonine-protein kinase Nek2 (Homo sapiens, UniProt P51955); experiment: Inhibition of recombinant human NEK2
# T1 sequence (P51955 whole entry): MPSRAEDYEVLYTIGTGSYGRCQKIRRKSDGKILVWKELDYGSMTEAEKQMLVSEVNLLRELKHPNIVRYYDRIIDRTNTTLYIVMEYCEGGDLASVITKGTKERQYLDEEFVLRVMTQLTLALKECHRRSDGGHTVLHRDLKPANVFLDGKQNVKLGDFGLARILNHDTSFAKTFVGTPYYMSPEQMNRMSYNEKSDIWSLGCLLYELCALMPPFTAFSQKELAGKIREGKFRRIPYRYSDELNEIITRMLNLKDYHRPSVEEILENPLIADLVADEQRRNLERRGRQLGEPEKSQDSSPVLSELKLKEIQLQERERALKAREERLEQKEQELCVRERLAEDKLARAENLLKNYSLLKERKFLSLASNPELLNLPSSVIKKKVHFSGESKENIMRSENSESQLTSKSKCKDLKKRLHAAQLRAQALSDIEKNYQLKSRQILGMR
# [5] = biological target: Vascular endothelial growth factor receptor 2 (Homo sapiens, UniProt P35968); experiment: Inhibition of recombinant human VEGF-R2 using poly(Glu,Tyr)4:1 as substrate
# [6] = biological target: Dual specificity mitogen-activated protein kinase kinase 1 (Homo sapiens, UniProt Q02750); experiment: Inhibition of wild type human MEK1
# [7] = biological target: T2, Tyrosine-protein kinase receptor UFO (Homo sapiens, UniProt P30530); experiment: Inhibition of recombinant human AXL
# T2 sequence (P30530 whole entry): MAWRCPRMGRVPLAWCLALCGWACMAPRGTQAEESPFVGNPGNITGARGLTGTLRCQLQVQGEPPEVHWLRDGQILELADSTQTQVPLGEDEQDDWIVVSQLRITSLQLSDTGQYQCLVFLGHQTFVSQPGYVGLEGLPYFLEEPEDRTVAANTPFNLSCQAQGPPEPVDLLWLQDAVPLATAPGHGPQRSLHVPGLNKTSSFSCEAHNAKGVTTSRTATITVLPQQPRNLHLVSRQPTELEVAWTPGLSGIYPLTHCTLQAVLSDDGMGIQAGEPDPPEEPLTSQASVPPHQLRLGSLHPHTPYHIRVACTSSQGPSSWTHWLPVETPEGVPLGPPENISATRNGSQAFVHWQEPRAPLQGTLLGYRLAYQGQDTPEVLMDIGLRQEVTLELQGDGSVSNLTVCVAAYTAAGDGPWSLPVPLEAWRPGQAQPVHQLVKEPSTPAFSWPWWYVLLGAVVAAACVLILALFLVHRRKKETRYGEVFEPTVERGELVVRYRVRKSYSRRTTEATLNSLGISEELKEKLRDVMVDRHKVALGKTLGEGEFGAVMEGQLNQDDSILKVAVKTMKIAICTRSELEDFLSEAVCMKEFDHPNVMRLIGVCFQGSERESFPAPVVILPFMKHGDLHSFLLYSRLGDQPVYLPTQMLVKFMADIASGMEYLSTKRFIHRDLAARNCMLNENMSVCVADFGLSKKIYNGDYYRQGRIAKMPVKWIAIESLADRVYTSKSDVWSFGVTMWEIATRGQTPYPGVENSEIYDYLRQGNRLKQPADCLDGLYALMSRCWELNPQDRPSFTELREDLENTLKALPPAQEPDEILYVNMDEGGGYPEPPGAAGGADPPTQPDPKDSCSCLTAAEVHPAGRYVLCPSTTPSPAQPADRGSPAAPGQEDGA
# [8] = biological target: Proto-oncogene tyrosine-protein kinase Src (Homo sapiens, UniProt P12931); experiment: Inhibition of recombinant human SRC using poly(Glu,Tyr)4:1 as substrate
# [9] = biological target: T3, NUAK family SNF1-like kinase 1 (Homo sapiens, UniProt O60285); experiment: Inhibition of recombinant human ARK5
# T3 sequence (O60285 whole entry): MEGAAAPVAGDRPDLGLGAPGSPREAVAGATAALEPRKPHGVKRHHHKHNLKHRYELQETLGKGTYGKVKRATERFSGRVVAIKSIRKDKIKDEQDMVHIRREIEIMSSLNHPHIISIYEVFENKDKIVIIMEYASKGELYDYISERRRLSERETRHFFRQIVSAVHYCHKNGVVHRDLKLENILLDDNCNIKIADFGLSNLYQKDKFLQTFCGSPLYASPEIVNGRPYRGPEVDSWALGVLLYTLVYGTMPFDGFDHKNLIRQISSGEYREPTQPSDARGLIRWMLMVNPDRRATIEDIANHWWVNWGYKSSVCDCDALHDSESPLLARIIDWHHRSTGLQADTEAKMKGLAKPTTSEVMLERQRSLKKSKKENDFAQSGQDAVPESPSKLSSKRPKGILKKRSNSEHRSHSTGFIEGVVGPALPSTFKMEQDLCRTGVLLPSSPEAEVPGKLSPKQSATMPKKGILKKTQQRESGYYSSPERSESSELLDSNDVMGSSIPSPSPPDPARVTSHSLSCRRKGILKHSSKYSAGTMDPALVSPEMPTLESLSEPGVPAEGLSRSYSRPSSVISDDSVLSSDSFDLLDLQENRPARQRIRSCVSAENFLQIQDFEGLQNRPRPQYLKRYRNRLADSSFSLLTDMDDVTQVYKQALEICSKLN
# [10] = biological target: Serine/threonine-protein kinase pim-1 (Homo sapiens, UniProt P11309); experiment: Inhibition of recombinant human PIM1
# Sequence of Serine/threonine-protein kinase pim-1 (P11309 whole entry): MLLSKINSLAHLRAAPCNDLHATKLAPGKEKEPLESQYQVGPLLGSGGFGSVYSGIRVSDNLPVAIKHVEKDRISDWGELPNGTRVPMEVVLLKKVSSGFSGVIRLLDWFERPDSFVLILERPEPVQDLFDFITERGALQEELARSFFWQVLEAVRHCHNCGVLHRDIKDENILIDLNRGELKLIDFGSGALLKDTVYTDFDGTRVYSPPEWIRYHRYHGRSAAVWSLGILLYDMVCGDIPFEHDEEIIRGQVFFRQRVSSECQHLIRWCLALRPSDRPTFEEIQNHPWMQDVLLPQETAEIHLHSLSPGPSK
# [11] = biological target: Serine/threonine-protein kinase N1 (Homo sapiens, UniProt Q16512); experiment: Inhibition of recombinant human PRK1
# [12] = biological target: Serine/threonine-protein kinase PLK1 (Homo sapiens, UniProt P53350); experiment: Inhibition of recombinant human PLK1 using casein as substrate
# [13] = biological target: Serine/threonine-protein kinase Nek6 (Homo sapiens, UniProt Q9HC98); experiment: Inhibition of recombinant human NEK6
# Sequence of Serine/threonine-protein kinase Nek6 (Q9HC98 whole entry): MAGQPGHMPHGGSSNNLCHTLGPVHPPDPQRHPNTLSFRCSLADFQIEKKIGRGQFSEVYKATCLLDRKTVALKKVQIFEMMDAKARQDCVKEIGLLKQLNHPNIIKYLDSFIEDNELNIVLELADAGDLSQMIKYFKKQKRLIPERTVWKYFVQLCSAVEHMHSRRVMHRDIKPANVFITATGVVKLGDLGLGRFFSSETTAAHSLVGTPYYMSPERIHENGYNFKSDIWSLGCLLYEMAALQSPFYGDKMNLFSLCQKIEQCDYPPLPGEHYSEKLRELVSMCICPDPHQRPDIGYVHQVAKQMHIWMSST
# [14] = biological target: Hepatocyte growth factor receptor (Homo sapiens, UniProt P08581); experiment: Inhibition of wild type human MET using poly(Ala,Glu,Lys,Tyr) as substrate
# Sequence of Hepatocyte growth factor receptor (P08581 whole entry): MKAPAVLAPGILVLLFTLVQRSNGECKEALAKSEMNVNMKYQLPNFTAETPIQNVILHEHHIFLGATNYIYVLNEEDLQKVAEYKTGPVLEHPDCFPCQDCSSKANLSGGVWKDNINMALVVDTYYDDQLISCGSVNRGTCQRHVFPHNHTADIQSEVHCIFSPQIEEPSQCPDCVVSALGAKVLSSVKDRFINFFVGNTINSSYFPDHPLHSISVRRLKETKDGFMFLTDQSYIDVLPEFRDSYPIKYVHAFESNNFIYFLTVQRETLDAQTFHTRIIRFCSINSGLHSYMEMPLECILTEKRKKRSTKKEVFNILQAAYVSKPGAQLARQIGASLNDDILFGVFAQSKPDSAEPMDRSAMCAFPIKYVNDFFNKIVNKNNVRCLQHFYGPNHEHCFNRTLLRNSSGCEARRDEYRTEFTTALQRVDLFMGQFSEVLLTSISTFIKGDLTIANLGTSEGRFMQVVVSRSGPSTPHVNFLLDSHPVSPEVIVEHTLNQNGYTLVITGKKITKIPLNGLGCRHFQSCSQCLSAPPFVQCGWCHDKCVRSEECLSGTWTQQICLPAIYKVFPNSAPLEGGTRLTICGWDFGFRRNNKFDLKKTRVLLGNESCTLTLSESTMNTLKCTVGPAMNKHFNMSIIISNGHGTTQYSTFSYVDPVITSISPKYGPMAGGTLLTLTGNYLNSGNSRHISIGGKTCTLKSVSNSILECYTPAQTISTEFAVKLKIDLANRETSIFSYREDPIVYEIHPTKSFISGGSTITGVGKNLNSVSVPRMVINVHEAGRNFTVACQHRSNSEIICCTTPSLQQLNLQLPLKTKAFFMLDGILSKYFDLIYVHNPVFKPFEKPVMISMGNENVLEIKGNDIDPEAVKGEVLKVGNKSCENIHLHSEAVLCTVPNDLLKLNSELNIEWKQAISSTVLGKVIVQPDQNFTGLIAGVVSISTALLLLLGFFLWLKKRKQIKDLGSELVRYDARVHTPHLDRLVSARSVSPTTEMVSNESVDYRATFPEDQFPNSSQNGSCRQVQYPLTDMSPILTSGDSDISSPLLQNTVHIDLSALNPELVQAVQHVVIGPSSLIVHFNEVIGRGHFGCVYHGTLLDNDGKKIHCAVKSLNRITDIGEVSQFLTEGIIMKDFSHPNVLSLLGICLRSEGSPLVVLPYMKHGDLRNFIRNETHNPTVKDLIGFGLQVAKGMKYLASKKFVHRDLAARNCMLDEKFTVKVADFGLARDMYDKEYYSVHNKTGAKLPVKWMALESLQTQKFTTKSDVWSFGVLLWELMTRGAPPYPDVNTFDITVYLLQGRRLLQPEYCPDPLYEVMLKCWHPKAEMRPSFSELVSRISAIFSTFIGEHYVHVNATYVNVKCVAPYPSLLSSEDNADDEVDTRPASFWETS
# Sequence of Focal adhesion kinase 1 (Q05397 whole entry): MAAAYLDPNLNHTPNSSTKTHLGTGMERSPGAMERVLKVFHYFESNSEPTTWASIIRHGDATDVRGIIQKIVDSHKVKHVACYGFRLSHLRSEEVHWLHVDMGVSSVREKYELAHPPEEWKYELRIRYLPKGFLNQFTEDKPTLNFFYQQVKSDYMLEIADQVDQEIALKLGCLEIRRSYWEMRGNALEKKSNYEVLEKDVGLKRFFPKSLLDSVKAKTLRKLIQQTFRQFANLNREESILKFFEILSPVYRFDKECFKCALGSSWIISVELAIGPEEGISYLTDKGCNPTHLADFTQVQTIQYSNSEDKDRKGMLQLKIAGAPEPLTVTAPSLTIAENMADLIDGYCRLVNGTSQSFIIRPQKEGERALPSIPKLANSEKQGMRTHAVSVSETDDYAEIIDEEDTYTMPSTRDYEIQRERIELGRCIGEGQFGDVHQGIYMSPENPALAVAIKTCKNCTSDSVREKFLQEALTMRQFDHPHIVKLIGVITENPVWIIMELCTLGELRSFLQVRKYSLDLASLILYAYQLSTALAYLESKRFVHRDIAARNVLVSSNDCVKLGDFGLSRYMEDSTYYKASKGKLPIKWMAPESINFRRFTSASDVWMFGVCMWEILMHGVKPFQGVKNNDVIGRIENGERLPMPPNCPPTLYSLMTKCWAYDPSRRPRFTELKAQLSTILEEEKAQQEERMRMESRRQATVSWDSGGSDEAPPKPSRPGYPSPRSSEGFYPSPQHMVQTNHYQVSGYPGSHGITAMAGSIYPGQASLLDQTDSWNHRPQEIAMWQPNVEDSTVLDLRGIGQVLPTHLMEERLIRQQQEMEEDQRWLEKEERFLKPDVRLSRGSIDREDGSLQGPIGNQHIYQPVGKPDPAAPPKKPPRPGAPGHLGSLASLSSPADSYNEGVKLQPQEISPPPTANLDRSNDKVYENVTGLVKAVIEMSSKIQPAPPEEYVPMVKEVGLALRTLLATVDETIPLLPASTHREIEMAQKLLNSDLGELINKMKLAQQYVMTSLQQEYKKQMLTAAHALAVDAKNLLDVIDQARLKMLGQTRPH
# Sequence of ALK tyrosine kinase receptor (Q9UM73 whole entry): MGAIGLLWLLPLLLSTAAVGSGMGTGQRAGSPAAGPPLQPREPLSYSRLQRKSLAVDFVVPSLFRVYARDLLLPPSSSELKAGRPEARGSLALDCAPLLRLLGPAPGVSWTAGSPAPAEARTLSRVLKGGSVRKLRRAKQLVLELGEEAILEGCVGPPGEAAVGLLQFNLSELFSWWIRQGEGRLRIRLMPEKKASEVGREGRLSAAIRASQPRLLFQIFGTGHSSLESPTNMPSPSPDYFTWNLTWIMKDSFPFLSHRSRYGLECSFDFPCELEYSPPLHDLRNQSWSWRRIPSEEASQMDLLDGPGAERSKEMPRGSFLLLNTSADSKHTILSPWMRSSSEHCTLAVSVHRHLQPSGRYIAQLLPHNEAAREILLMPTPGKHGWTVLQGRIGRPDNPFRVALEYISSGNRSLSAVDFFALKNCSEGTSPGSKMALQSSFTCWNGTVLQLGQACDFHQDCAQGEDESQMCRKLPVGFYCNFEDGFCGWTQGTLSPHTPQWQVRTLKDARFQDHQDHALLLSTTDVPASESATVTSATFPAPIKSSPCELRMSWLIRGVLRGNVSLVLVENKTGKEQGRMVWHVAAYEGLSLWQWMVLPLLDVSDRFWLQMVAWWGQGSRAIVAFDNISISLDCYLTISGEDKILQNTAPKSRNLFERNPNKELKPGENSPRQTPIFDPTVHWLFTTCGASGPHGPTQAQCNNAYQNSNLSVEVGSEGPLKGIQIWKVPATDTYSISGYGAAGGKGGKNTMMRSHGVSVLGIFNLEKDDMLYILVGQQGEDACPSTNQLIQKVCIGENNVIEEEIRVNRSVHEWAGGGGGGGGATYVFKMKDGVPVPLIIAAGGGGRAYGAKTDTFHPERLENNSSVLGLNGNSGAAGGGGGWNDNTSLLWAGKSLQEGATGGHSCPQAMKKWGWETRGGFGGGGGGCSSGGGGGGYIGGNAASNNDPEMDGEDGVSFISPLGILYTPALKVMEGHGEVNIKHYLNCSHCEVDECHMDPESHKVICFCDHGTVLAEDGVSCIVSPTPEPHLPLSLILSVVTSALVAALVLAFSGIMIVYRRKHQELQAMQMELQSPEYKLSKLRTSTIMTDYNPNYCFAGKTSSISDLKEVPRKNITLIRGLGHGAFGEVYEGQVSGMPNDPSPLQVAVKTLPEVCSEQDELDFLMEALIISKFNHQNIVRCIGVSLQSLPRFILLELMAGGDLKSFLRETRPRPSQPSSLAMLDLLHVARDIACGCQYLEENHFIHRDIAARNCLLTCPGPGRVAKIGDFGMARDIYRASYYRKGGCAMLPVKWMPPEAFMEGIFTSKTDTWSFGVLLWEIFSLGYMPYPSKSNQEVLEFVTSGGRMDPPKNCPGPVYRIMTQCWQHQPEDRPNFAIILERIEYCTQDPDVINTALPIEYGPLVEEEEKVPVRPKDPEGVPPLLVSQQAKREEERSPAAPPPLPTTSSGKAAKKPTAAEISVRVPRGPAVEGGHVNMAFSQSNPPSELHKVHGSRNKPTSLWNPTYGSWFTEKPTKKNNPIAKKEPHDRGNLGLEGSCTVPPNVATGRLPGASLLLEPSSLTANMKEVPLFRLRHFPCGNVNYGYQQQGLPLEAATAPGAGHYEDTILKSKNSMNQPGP
Structure (SMILES),IC50 (Focal adhesion kinase 1),IC50 [1],IC50 [2],IC50 (Aurora kinase B),IC50 [3],IC50 [4],IC50 [5],IC50 [6],IC50 [7],IC50 [8],IC50 [9],IC50 [10],IC50 [11],IC50 [12],IC50 [13],IC50 [14]
Cc1ccc(O)cc1CC[C@@H]1[C@@H](O)CC[C@]2(C)[C@@H]([C@H](C)/C=C/CC(C)C)CC[C@@H]12 (relative stereo),16.9 µM,9.33 µM,3.16 µM,38.1 µM,> 100 µM,> 100 µM,4.95 µM,> 100 µM,21.9 µM,2.4 µM,> 100 µM,> 100 µM,> 100 µM,> 100 µM,> 100 µM,
C=C(CC[C@@H](C)[C@H]1CC[C@H]2[C@H](CCc3cc(O)ccc3C)[C@H](O)CC[C@]12C)C(C)C [CALICOFEROL C],> 100 µM,> 100 µM,> 100 µM,> 100 µM,> 100 µM,> 100 µM,> 100 µM,> 100 µM,> 100 µM,> 100 µM,> 100 µM,> 100 µM,> 100 µM,> 100 µM,> 100 µM,> 100 µM
Cc1ccc(O)cc1CC[C@@H]1C(=O)CC[C@]2(C)[C@@H]([C@H](C)/C=C/CC(C)C)CC[C@@H]12 [CALICOFEROL A],9.92 µM,4.16 µM,2.42 µM,> 100 µM,> 100 µM,> 100 µM,4.6 µM,> 100 µM,14.7 µM,2.24 µM,> 100 µM,> 100 µM,> 100 µM,> 100 µM,> 100 µM,47.6 µM
Cc1ccc(O)cc1CC[C@@H]1[C@H](O)CC[C@]2(C)[C@@H]([C@H](C)CCCC(C)C)CC[C@@H]12 [ASTROGORGIADIOL],13.2 µM,7.55 µM,2.77 µM,25.1 µM,> 100 µM,> 100 µM,4.35 µM,48.9 µM,16.9 µM,1.91 µM,> 100 µM,> 100 µM,> 100 µM,> 100 µM,> 100 µM,78 µM
C=C(CC[C@@H](C)[C@H]1CC[C@H]2[C@H](CCc3cc(O)ccc3C)C(=O)CC[C@]12C)C(C)C,10.7 µM,4.36 µM,2.3 µM,> 100 µM,> 100 µM,> 100 µM,4.85 µM,> 100 µM,20.2 µM,1.48 µM,> 100 µM,> 100 µM,> 100 µM,100 µM,> 100 µM,27.5 µM
Cc1ccc(O)cc1CC[C@@H]1[C@H](O)CC[C@]2(C)[C@@H]([C@H](C)CCCC(C)C)[C@@H](O)C[C@@H]12 [CALICOFEROL B],> 100 µM,> 100 µM,> 100 µM,> 100 µM,> 100 µM,> 100 µM,> 100 µM,> 100 µM,> 100 µM,> 100 µM,> 100 µM,> 100 µM,> 100 µM,> 100 µM,> 100 µM,> 100 µM

# The next lines start with the values.
IC50 (Focal adhesion kinase 1),IC50 [1],IC50 [2],IC50 (Aurora kinase B),IC50 [3],IC50 [4],IC50 [5],IC50 [6],IC50 [7],IC50 [8],IC50 [9],IC50 [10],IC50 [11],IC50 [12],IC50 [13],IC50 [14],Structure (SMILES)
9.63 µM,4.73 µM,2.46 µM,> 100 µM,> 100 µM,> 100 µM,6.01 µM,> 100 µM,32.6 µM,2.17 µM,> 100 µM,> 100 µM,> 100 µM,> 100 µM,> 100 µM,,Cc1ccc(O)cc1CC[C@@H]1C(=O)CC[C@]2(C)[C@@H]([C@H](C)CCCC(C)C)CC[C@@H]12 [CALICOFEROL E]
> 100 µM,> 100 µM,> 100 µM,> 100 µM,> 100 µM,> 100 µM,> 100 µM,> 100 µM,> 100 µM,> 100 µM,> 100 µM,> 100 µM,> 100 µM,> 100 µM,> 100 µM,> 100 µM,Cc1ccc(O)cc1CC[C@@H]1C(=O)CC[C@]2(C)[C@@H]([C@H](C)CCCC(C)C)[C@@H](O)C[C@@H]12 [CALICOFEROL I]
